Experiment [1] deals with serotonin transporter (Rattus norvegicus, UniProt P31652). Description: 5-HT releasing/substrate activity using rat brain synaptosomes.
Experiment [2] addresses T1, (h)DAT (Homo sapiens, UniProt Q01959).
T1 construct: expressed in transfected cells
Nature of the experiment: competition binding with [125I]RTI-55 at (h)DAT stably expressed in HEK293 cells. Particulars: mean ± standard error of three independent experiments.

Experiment [3] concerns the target T2, (h)SERT (Homo sapiens, UniProt P31645).
T2 construct: expressed in transfected cells; host or cells: HEK293
Particulars: read-out: Binding, Ki SERT.

Experiment [4] addresses T1, (h)DAT. Description: block of [3H]dopamine reuptake in HEK-(h)DAT cells. It is filed as cell-based.
Experiment [5] deals with T2, (h)SERT. Nature of the experiment: block of [3H]serotonin reuptake in HEK-(h)SERT cells. It is filed as cell-based.
Experiment [6] relates to mice. Description: locomotor activity, 1-h observation protocol. It is filed as in vivo. The following applies: for Emax / ED50: Mus musculus; for Emax: 0.5 h, read-out: Locomotor Activity 1-Hour % Peak Cocaine; for ED50 / Locomotor Activity 1-Hour ED50: dose to produce 50% of the compound's maximal effect, 1-h.
The test system of experiment [7] is mice. Description: locomotor activity, 8-h time course protocol. It is filed as in vivo. Particulars: for locomotor stimulant activity across the 1-h and 8-h protocols, in words: 1-h and 8-h tests compared; for Emax / ED50: Mus musculus; for Emax: read-out: Locomotor Activity 8-Hour % Peak Cocaine, percent of cocaine's maximal effect, 30 min period of maximum stimulation; for ED50: read-out: Locomotor Activity 8-Hour ED50; for Locomotor Activity 8-Hour Time, min Period, length: duration of locomotor activity; for Locomotor Activity 8-Hour Time, min Period, max: time period of maximum effect.

The target in experiment [8] is T3, (h)NET (Homo sapiens, UniProt P23975). Nature of the experiment: block of [3H]norepinephrine reuptake in HEK-(h)NET cells.
The test system of experiment [9] is rats. Description: cocaine discrimination (2-lever operant), i.p. administration. Particulars: for responders at 5 mg/kg / responders at 10 mg/kg / responders at 25 mg/kg / responders at 50 mg/kg / responders at 100 mg/kg: read-out: % cocaine lever responding.
Experiment [10] deals with rats. Description: cocaine discrimination time-course study, oral administration. The following applies: for ED50: Rattus norvegicus, po, 0.75 h; for generalization to cocaine: p.o.
Experiment [11] concerns the target T3, (h)NET. Description: competition binding with [125I]RTI-55 at (h)NET stably expressed in HEK293 cells. The following applies: read-out: Binding, Ki NET; mean ± standard error of three independent experiments.
The mark [12] stands for this setting: read-out: Uptake, IC50 [3H]5-HT.
Where [13] appears, read: dose to produce 50% of the compound's maximal effect, 8-h.
[14] abbreviates: read-out: IC50 for NE uptake inhibition, [3H]NE.
[15] abbreviates: [3H]DA, read-out: IC50 for DA uptake inhibition.

Structures are written as SMILES. Read-outs that look alike come from different tables or passages of the source. Bounds are passed on as bounds.

This is an account of results in patent US10919841B2, “Monoamine reuptake inhibitors” (Research Triangle Institute, priority 2009, dated 2021).

T3 sequence (P23975 whole entry): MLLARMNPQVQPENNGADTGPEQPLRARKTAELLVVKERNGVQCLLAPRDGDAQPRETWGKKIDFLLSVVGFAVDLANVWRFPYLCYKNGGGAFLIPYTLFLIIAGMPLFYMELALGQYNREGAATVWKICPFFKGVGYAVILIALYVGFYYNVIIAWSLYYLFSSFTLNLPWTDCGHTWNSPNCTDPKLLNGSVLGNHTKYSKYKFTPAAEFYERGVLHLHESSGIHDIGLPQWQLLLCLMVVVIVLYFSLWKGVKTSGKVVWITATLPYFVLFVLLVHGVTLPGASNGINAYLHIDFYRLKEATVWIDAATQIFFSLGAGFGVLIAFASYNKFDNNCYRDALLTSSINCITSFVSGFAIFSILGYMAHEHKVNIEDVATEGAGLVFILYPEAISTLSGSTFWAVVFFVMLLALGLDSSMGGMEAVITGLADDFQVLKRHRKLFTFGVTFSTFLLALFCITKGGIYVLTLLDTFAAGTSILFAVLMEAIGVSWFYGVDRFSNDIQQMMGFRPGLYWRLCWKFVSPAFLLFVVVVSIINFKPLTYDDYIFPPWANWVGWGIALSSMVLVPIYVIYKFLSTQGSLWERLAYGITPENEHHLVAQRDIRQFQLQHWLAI
T2 sequence (P31645 whole entry): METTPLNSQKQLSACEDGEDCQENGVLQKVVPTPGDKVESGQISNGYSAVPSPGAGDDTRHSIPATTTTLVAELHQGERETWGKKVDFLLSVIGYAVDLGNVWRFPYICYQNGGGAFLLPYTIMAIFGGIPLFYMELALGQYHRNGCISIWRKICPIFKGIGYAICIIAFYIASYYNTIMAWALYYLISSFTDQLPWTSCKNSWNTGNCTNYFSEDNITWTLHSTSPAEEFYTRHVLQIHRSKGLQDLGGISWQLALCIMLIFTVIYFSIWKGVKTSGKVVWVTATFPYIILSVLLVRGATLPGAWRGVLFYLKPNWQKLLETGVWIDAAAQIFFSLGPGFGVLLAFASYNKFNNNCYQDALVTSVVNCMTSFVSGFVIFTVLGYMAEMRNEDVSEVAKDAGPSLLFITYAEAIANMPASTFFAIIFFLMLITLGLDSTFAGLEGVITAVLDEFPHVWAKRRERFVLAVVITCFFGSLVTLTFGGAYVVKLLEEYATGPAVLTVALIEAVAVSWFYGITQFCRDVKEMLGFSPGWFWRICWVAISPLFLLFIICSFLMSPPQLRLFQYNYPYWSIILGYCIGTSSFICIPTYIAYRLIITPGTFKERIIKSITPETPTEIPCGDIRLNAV
T1 sequence (Q01959 whole entry): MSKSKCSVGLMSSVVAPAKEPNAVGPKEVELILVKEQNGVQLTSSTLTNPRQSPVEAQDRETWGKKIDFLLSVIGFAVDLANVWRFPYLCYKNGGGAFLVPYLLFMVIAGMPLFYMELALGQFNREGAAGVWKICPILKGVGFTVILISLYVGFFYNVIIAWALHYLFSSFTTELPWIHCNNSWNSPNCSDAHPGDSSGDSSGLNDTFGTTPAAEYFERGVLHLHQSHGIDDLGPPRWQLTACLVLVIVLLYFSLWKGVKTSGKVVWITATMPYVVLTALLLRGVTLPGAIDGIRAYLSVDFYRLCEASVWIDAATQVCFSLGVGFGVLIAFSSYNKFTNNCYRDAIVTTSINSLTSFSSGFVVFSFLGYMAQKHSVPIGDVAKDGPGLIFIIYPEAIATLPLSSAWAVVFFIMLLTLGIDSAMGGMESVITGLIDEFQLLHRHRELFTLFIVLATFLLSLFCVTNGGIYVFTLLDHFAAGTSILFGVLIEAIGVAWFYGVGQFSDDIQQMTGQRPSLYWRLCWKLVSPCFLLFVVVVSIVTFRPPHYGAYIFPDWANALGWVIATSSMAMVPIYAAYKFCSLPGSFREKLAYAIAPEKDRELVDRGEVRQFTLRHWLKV
Chain of serotonin transporter (P31652 whole entry): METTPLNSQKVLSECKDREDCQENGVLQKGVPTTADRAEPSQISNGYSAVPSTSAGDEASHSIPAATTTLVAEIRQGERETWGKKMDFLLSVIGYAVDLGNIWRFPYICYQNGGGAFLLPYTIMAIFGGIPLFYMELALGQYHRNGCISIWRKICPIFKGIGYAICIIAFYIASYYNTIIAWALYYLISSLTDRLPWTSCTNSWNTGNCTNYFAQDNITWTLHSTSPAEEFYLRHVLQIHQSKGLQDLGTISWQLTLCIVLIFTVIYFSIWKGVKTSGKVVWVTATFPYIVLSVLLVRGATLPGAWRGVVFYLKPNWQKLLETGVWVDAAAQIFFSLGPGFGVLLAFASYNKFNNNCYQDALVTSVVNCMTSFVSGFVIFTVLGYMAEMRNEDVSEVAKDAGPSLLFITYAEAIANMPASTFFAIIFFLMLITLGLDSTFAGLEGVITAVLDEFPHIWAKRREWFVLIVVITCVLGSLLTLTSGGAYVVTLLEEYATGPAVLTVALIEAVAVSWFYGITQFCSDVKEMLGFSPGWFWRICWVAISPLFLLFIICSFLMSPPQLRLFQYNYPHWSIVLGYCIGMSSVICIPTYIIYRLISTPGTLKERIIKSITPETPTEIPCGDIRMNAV

A word on the EC50: it is the concentration needed to bring the measured effect to its halfway point. Regarding `CC(NC1CC1)C(=O)c1cccc(Br)c1` (stereo not shown), the EC50 in [1] was 0.383 ± 0.056 µM.
Consider `Cc1cccc(C(=O)C(C)NC2CC2)c1` (stereo not shown), for which the EC50 in experiment [1] stood at 0.89 ± 0.063 µM.
Take `COc1cccc(C(=O)C(C)NC2CC2)c1` (stereo not shown): the EC50 in experiment [1] amounted to 0.676 ± 0.197 µM.
With `CC(NC1CC1)C(=O)c1ccc(Cl)cc1` (stereo not shown), the EC50 in [1] is 2.7 ± 0.314 µM.
`Cc1ccc(C(=O)C(C)NC2CC2)cc1` (stereo not shown) returned an EC50 in experiment [1] of 0.707 ± 0.069 µM.
Regarding `CC(NC1CC1)C(=O)c1ccc(Cl)c(Cl)c1` (stereo not shown), a half-maximal response in experiment [1] (EC50) required 0.148 ± 0.035 µM.
In [1], `Cc1ccc(C(=O)C(C)NC2CC2)cc1Cl` (stereo not shown) yielded an EC50 of 0.139 ± 0.03 µM.
In general, Ki refers to the equilibrium dissociation constant of an inhibitor or competing ligand from its target. One may read the IC50 as the concentration that gives 50% inhibition. The term ED50 denotes the dose at which the effect has come halfway, by size or by number of responders. In the case of `CCCC(NC(C)(C)C)C(=O)c1ccc(Cl)c(Cl)c1` (stereo not shown) [Compound 2bb, 2-(tert-Butylamino)-3′,4′-dichloropentanophenone], the Ki in experiment [2] was 0.0437 µM; in experiment [3], 0.842 µM; in experiment [11], 0.52 µM. Further, the “DA uptake inhibition, in words” value in experiment [4] is recorded as “slightly lower IC50 values than 2j”. Besides, the IC50 in experiment [4] (mean ± standard error of three independent experiments, read-out: Uptake, IC50 [3H]DA) came out at 0.084 µM; in experiment [5] (setting [12]), 1.58 µM; in [8] (setting [14]), 0.043 µM. Also, the Emax was 49% in experiment [6] and 100% in experiment [7]. The ED50 in experiment [6] worked out at 18.1 mg/kg; in [7] (setting [13]), 35 mg/kg; in experiment [9] (Rattus norvegicus, ip, read-out: Full Generalization ED50), 6.95 mg/kg; in experiment [10], 17.3 mg/kg. In addition, in experiment [7], the “locomotor stimulant activity across the 1-h and 8-h protocols, in words” value is recorded as “moderate activity in the 1-h test with increased activity in the time-course study”. In experiment [7], the “Locomotor Activity 8-Hour Time, min Period, length” value came out at 470 min. The “Locomotor Activity 8-Hour Time, min Period, max” value in [7] lay in the range of 0 to 30 min. In experiment [8] (relative to bupropion), the “times better as NE uptake inhibitors than bupropion” value worked out at 34 times. Moreover, the responders at 5 mg/kg in experiment [9] (Rattus norvegicus, ip) came out at 1%. The responders at 10 mg/kg in experiment [9] (Rattus norvegicus, ip) was determined as 17%. For the same compound, the responders at 25 mg/kg in experiment [9] (Rattus norvegicus, ip) stood at 10%.
Regarding `CC(C(=O)c1cccc(Cl)c1)N1CCCCC1` (stereo not shown) [Compound 2ff, 2-Piperidino-3′-chloropropiophenone], the affinity in experiment [2] corresponds to a Ki of 1.15 µM. In addition, in experiment [3], the Ki was 5.48 µM. The 50% inhibitory concentration (IC50) in [4] (setting [15]) is 1.03 µM. Besides, the IC50 in [5] (setting [12]) was determined as 0.97 µM. The “Locomotor Activity 1-Hour ED50” value in experiment [6] was “NE^f”. In addition, in experiment [7], the “locomotor stimulant activity across the 1-h and 8-h protocols, in words” value was “inactive in the 1-h test but showed weak stimulant activity in the 8-h protocol”; the Emax stood at 45%; the “Locomotor Activity 8-Hour Time, min Period, length” value is listed as 470 min. For the same compound, the 50% effective dose (ED50) in experiment [7] (setting [13]) is 15 mg/kg. Moreover, the “onset and duration of locomotor activity, in words” value in experiment [7] (mouse, in vivo) is “very slow onset of stimulatory activity”. Also, the IC50 in [8] (read-out: Uptake, IC50 [3H]NE, mean ± standard error of three independent experiments) turned out to be 4.8 µM. Further, in experiment [9] (Rattus norvegicus, ip), the responders at 10 mg/kg came out at 6%, the responders at 25 mg/kg worked out at 17%, the responders at 50 mg/kg worked out at 33% and the responders at 100 mg/kg was found to be 34%. The Ki in experiment [11] turned out to be 4.76 µM.
As for `CC(C)(C)NC(CCC1CCCCC1)C(=O)c1cccc(Cl)c1` (stereo not shown) [Compound 2u, 2-(N-tert-Butylamino)-3′-chlorophenyl-4-cyclohexylbutanophenone], the inhibition constant (Ki) worked out at 1.7 µM in experiment [2], 6.2 µM in experiment [3] (mean ± standard error of three independent experiments) and 3.8 µM in experiment [11]. The IC50 in experiment [4] (setting [15]) was greater than 10 µM; in [4] (bound given in μM, read-out: Uptake, IC50 [3H]DA), greater than 10 µM; in experiment [5] (bound given in μM, read-out: Uptake, IC50 [3H]5-HT), greater than 10 µM; in experiment [8] (read-out: Uptake, IC50 [3H]NE, bound given in μM), greater than 10 µM. For the same compound, in experiment [6], the “Locomotor Activity 1-Hour ED50” value is recorded as “NE^f”. For the same compound, the “locomotor stimulant activity across the 1-h and 8-h protocols, in words” value in experiment [7] was “inactive in the 1-h test but showed weak stimulant activity in the 8-h protocol”. Also, the “Locomotor Activity 8-Hour ED50” value in experiment [7] (setting [13]) is 15.3 mg/kg. For the same compound, the “Locomotor Activity 8-Hour Time, min Period, length” value in [7] lay within 60 to 160 min. In [7] (percent of cocaine's maximal effect, 30 min period of maximum stimulation), the “Locomotor Activity 8-Hour % Peak Cocaine” value is 47%. Moreover, in [7], the “Locomotor Activity 8-Hour Time, min Period, max” value fell in the range of 60 to 90 min. Also, the “% cocaine lever responding” value in [9] (rats, IP, dose 5 mg/kg) was found to be 0%; in experiment [9] (rats, IP, dose 10 mg/kg), 0%; in experiment [9] (rats, IP, dose 25 mg/kg), 70%. Moreover, the “Comments (response rate)” value in [9] (rats, IP, response rate relative to vehicle control) is “B^b”.
On to `CC(NC1CC1)C(=O)c1cccc(Cl)c1` (stereo not shown) [Compound 2x, 2-(N-Cyclopropylamino)-3′-chloropropiophenone], for which the Ki in [2] came to 1.15 µM; in experiment [3], 3.42 µM; in [11], 4 µM. The results for the IC50 in [4] (setting [15]), in [5] (read-out: IC50 for 5HT uptake inhibition) and in experiment [8] (setting [14]) were 0.265 µM, 3.18 µM and 2.15 µM, respectively. Further, in [4] (relative to bupropion), the “times more potent than bupropion as DA uptake inhibitor” value came out at 3.6 times. The Emax in [6] and in [7] was 94% each time. Further, the ED50 in experiment [6] worked out at 14.7 mg/kg; in experiment [7] (setting [13]), 14.7 mg/kg; in [10], 13.3 mg/kg. For the same compound, the “locomotor stimulant activity across the 1-h and 8-h protocols, in words” value in experiment [7] is reported as “strong stimulants in both studies”. The “Locomotor Activity 8-Hour Time, min Period, length” value in experiment [7] turned out to be 350 min. Further, the “Locomotor Activity 8-Hour Time, min Period, max” value in [7] lay in the range of 0 to 30 min. For the same compound, the responders at 5 mg/kg in [9] (Rattus norvegicus, ip) came to 6%. Moreover, in experiment [9] (Rattus norvegicus, ip), the responders at 10 mg/kg is 67%. Also, the responders at 25 mg/kg in experiment [9] (Rattus norvegicus, ip) amounted to 34%. Further, the responders at 50 mg/kg in experiment [9] (Rattus norvegicus, ip) is 17%. In [9] (Rattus norvegicus, ip), the responders at 100 mg/kg turned out to be 17%. In [9] (i.p., 5 mg/kg), the “cocaine-appropriate responding (partial generalization)” value turned out to be 67%. The same compound yielded a cocaine-appropriate responding in experiment [9] (i.p., 10 mg/kg) of 67%. For the same compound, the “response rate, in words” value in [9] (i.p., dose range given in the value) is “affected response rate at 25-100 mg/kg”. Also, the generalization to cocaine entry in experiment [10] (45 min, 10 mg/kg) is “partial generalization”; in [10] (45 min, 25 mg/kg), “partial generalization”; in experiment [10] (90 min, 25 mg/kg) it was “full generalization”; in experiment [10] (180 min, 25 mg/kg) it was “full generalization”. The same compound displayed an EC50 in experiment [1] of 0.283 µM.
